We go through eight compounds from patent US11584752B2, “Method for controlled release using mechanical force” (California Institute of Technology, priority 2020, dated 2023).

Entries after “also recorded” stand apart in the source; their conditions may differ.

Data set [1] is described as follows: Thermal stability of Diels-Alder adducts in toluene-d8 (retro-Diels-Alder conversion by 1H NMR). Type of data set: physicochemical. The text has this:
For example, FIGS. 7A and 7B illustrate that addition of the 3-phenoxy group to the furan moiety leads to a pronounced increase in the thermal stability of the Diels-Alder adduct of many embodiments. Not to be bound by any theory, this effect has been observed previously for cycloadducts derived from 3-alkoxy-furans, and it has been ascribed to a reduction in the energetic penalty for loss of furan aromaticity (as explained, for example in: Boutelle, R. C.; Northrop, B. H. Substituent Effects on the Reversibility of Furan-Maleimide Cycloadditions. J. Org. Chem. 2011, 76, 7994-8002; and Foster, R. W.; et al. Irreversible endo-Selective Diels-Alder Reactions of Substituted Alkoxyfurans: A General Synthesis of endo-Cantharimides. Chemistry 2015, 21, 6107-6114, the disclosures of which are incorporated herein by reference). Accordingly, FIG. 7A illustrates that, […] after 5 h, while the same conditions lead to approximately 46% reversion of the analogous Diels-Alder adduct (±)-216 without the 3-phenoxy substituent. […] Accordingly, in many embodiments, 3-phenoxy, or any similar aryloxy substituent at 3-position of the furan moiety enhances the thermal stability of such mechanophore platforms without any detriment to their mechanochemical activity.
In comparison, as described herein, heating the Diels-Alder adduct comprising a 3-OPh substituted furan moiety at 70° C. under the same conditions results in <2% retro-Diels-Alder conversion, while for the Diels-Alder adduct comprising neither substituent the conversion ˜46% under the same heating conditions.

The nature of data set [2]: Decomposition of model 2-furylcarbinol derivatives in solution at room temperature, followed by NMR and photoluminescence spectroscopy.
Source text: The generation of hydroxycoumarin 2 in the room temperature solution of furfuryl carbonate 1 in MeCN:MeOH (3:1) was also monitored over time using fluorescence spectroscopy (FIG. 3C).
Furthermore, FIG. 8C illustrates the kinetics of the decomposition of furfuryl carbamates comprising α-methyl, 3-phenoxy, and 5-position substituents according to many embodiments, such as exemplified by 21, and compares them to the furfuryl carbamates without the 3-phenoxy substitution, such as exemplified by furfuryl carbamate 22. More specifically, FIG. 8C provides data from experimental studies, wherein the decompositions of 21 and 22 to generate aminocoumarin 23 were monitored as a function of time using NMR and PL spectroscopy.
[3] abbreviates: toluene-d8, room temperature, after 132 days.

As for `CC(O)C12OC(COC(=O)C(C)(C)Br)(C=C1Oc1ccccc1)C1C(=O)N(CCOC(=O)C(C)(C)Br)C(=O)C12` (racemic) [(±)-29, (2-(2-((2-bromo-2-methylpropanoyl)oxy)ethyl)-7-(1-hydroxyethyl)-1,3-dioxo-6-phenoxy-1,2,3,3a,7,7a-hexahydro-4H-4,7-epoxyisoindol-4-yl)methyl 2-bromo-2-methylpropanoate], the retro-Diels-Alder conversion is less than 2% in data set [1] (toluene-d8, 70° C., after 5 h); less than 7% in data set [1] (toluene-d8, 70° C., after 21 h); “no reaction is observed” in data set [1] (setting [3]). For the same compound, the thermal stability result in data set [1] (toluene-d8, room temperature) is recorded as “stable indefinitely”.

Consider `CC(C)(Br)C(=O)OCCc1ccc(OC23C=CC(CO)(O2)C2C(=O)N(CCOC(=O)C(C)(C)Br)C(=O)C23)cc1` (racemic) [(±)-33, 4-((2-(2-((2-bromo-2-methylpropanoyl)oxy)ethyl)-7-(hydroxymethyl)-1,3-dioxo-1,2,3,3a,7,7a-hexahydro-4H-4,7-epoxyisoindol-4-yl)oxy)phenethyl 2-bromo-2-methylpropanoate], for which the retro-Diels-Alder conversion entry in data set [1] (toluene-d8 (7.7 mM), room temperature, nearly two months) is on record as “negligible; also recorded: no detectable products”; in data set [1] (toluene-d8, 70° C., after 21 h), approximately 35%.

On to `CC(O)[C@@]12C=C[C@@](COC(=O)C(C)(C)Br)(O1)[C@@H]1C(=O)N(CCOC(=O)C(C)(C)Br)C(=O)[C@@H]12` (mixture of isomers) [(±)-216], for which the retro-Diels-Alder conversion entry is recorded as “approximately 46%” in data set [1] (toluene-d8, 70° C., after 5 h); “nearly quantitative” in data set [1] (toluene-d8, 70° C., after 21 h); “approximately 23%” in data set [1] (setting [3]). In data set [1] (toluene-d8, room temperature), the thermal stability result is given as “slow, but detectable, reversion”.

Take `Cc1cc(=O)oc2cc(OC(=O)OC(C)c3ccc(COC(=O)C(C)(C)Br)o3)ccc12` (centres unmarked) [Compound 1, (5-(1-((((4-methyl-2-oxo-2H-chromen-7-yl)oxy)carbonyl)oxy)ethyl)furan-2-yl)methyl 2-bromo-2-methylpropanoate]: the stability in solvent entry is reported as “relatively stable” in data set [2] (DCM, chloroform, and hexanes); “decomposes quickly” in data set [2] (acidic and protic solvents); “relatively stable” in data set [2] (chloroform and acetonitrile). Moreover, the half-life (usually the time needed for the level to fall by half in the phase considered) was 79 min in data set [2] (acetonitrile-d3/methanol solution, reaction half-life t1/2 of decomposition, 3:1 (v/v) acetonitrile-d3/methanol, room temperature, from NMR measurements) and approximately 8 min in data set [2] (water/acetonitrile-d3 solution, half-life of decomposition, water/acetonitrile mixture (water 25% by volume in acetonitrile-d3), room temperature, NMR).

Turning to `Cc1cc(=O)oc2cc(NC(=O)OC(C)c3oc(COC(=O)C(C)(C)C)cc3Oc3ccccc3)ccc12` (centres unmarked) [Compound 21, (5-(1-(((4-methyl-2-oxo-2H-chromen-7-yl)carbamoyl)oxy)ethyl)-4-phenoxyfuran-2-yl)methyl pivalate], in data set [2] (3:1 MeCN/MeOH, room temperature), the “time to full conversion to products” value was “approximately 5 h”. Also, the half-life at 19 μM in data set [2] (MeCN-d3/MeOH solution, half-life for decomposition t1/2, 3:1 MeCN-d3/MeOH, room temperature, NMR, first-order fit) came to 34 min.

With `Cc1cc(=O)oc2cc(NC(=O)OC(C)c3ccc(COC(=O)C(C)(C)C)o3)ccc12` (centres unmarked) [Compound 22, (5-(1-(((4-methyl-2-oxo-2H-chromen-7-yl)carbamoyl)oxy)ethyl)furan-2-yl)methyl pivalate], in data set [2] (19.6 mM in MeCN-d3:MeOH (3:1), room temperature, after 134 days, 1H NMR), the conversion entry is recorded as “approximately 40%”. The decomposition reactivity entry in data set [2] (3:1 MeCN/MeOH, room temperature, same conditions as 21) is “completely unreactive”.

In data set [2] (acetonitrile-d3/methanol solution, half-life for consumption t1/2, 3:1 acetonitrile-d3/methanol, room temperature, NMR, 21 mM), `Cc1cc(=O)oc2cc(NC(=O)OCc3ccc(Oc4ccc(CCOC(=O)C(C)(C)Br)cc4)o3)ccc12` [Compound 35, 4-((5-((((4-methyl-2-oxo-2H-chromen-7-yl)carbamoyl)oxy)methyl)furan-2-yl)oxy)phenethyl 2-bromo-2-methylpropanoate] gave a half-life at 21 mM of 558 min. Besides, the “yield of aminocoumarin released” value in data set [2] (acetonitrile/methanol (3:1 v/v), room temperature) is “nearly quantitative”. In data set [2] (acetonitrile/methanol solution, half-life of consumption and aminocoumarin generation, acetonitrile/methanol (3:1 v/v), room temperature, 1H NMR and PL), the half-life is approximately 600 min.

With `Cc1cc(=O)oc2cc(OC(=O)OCc3ccc(COC(=O)C(C)(C)Br)o3)ccc12` [Compound S2, (5-(((((4-methyl-2-oxo-2H-chromen-7-yl)oxy)carbonyl)oxy)methyl)furan-2-yl)methyl 2-bromo-2-methylpropanoate], in data set [2] (room temperature), the “estimated half-lives for decomposition” value was “several weeks”.
